Experimental data published in patent US20240383852A1, “ANTI-VIRAL COMPOUNDS” (INFEX Therapeutics Limited, priority 2021, published 2024).
Structures can show the parent of a compound that is named as a salt.

Biological target: T1, SARS-CoV-2 PLpro (Severe acute respiratory syndrome coronavirus 2, UniProt P0DTD1)
T1 construct: containing 60 nM papain-like protease
Experiment: biochemical
Conditions: 60 nM papain-like protease, 50 μM Z-RLRGG-AMC, pH 7.5, 37° C.; read-out: SARS-CoV-2 PLpro IC50

Going from `C[C@@H](NC(=O)c1cccc(N2CCN(C)CC2)c1)c1cccc2ccccc12` [Example 2, 3-(4-Methylpiperazin-1-yl)-N-[(1R)-1-(1-naphthyl)ethyl]benzamide] to `C[C@@H](NC(=O)c1cccc(C(=O)N2CCN(C)CC2)c1)c1cccc2ccccc12` [Example 173, 3-(4-Methylpiperazine-1-carbonyl)-N-[(1R)-1-(1-naphthyl)ethyl]benzamide], the IC50 rises from < 2 µM to > 100 µM. The first is the more potent here.

`Cc1ccc(C2CC2)cc1C(=O)N[C@H](C)c1cccc2ccccc12` [Example 4, 5-Cyclopropyl-2-methyl-N-[(1R)-1-(1-naphthyl)ethyl]benzamide] and `Cc1ccc(-c2cn[nH]c2)cc1C(=O)N[C@H](C)c1cccc2ccccc12` [Example 153, 2-Methyl-N-[(1R)-1-(1-naphthyl)ethyl]-5-(1H-pyrazol-4-yl)benzamide] cannot be ordered by IC50: < 5 µM for the first, < 20 µM for the second.

`C[C@@H](NC(=O)c1cccc(C2CCNCC2)c1)c1cccc2ccccc12` [Example 6, N-[(1R)-1-(1-Naphthyl)ethyl]-3-(4-piperidyl)benzamide Hydrochloride Salt] and `C[C@@H](NC(=O)c1cccc(C2CCN(CCC(=O)O)CC2)c1)c1cccc2ccccc12` [Example 164, 3-[4-[3-[[(1R)-1-(1-Naphthyl)ethyl]carbamoyl]phenyl]-1-piperidyl]propanoic acid] cannot be ordered by IC50: < 20 µM for the first, < 100 µM for the second.

`COc1ccc([C@@H](C)NC(=O)c2cc(N3C[C@@H]4C[C@H]3CN4C)ccc2C)cc1OC` [Example 12, N-[(1R)-1-(3,4-Dimethoxyphenyl)ethyl]-2-methyl-5-[(1S,4S)-5-methyl-2,5-diazabicyclo[2.2.1]heptan-2-yl]benzamide] and `COc1cc([C@@H](C)NC(=O)c2cc(N3CCN(C)CC3)ccc2C)ccc1O` [Example 305, N-[(1R)-1-(4-Hydroxy-3-methoxy-phenyl)ethyl]-2-methyl-5-(4-methylpiperazin-1-yl)benzamide] cannot be ordered by IC50: < 5 µM for the first, < 5 µM for the second.

Going from `C[C@@H](NC(=O)c1cc(-c2ccc(C3CCNCC3)cc2)cn1C)c1cccc2ccccc12` [Example 151, 1-Methyl-N-[(1R)-1-(1-naphthyl)ethyl]-4-[4-(4-piperidyl)phenyl]pyrrole-2-carboxamide] to `Cc1ccc(-c2cccc(S(=O)(=O)N3CCNCC3)c2)cc1C(=O)N[C@H](C)c1cccc2ccccc12` [Example 152, 2-Methyl-N-[(1R)-1-(1-naphthyl)ethyl]-5-(3-piperazin-1-ylsulfonylphenyl)benzamide], the IC50 falls from > 100 µM to < 100 µM. The second is the more potent here.

`Cc1ccc(-c2ccnc(N3CCN(CCC(=O)O)CC3)c2)cc1C(=O)N[C@H](C)c1cccc2ccccc12` [Example 169, 3-[4-[4-[4-Methyl-3-[[(1R)-1-(1-naphthyl)ethyl]carbamoyl]phenyl]-2-pyridyl]piperazin-1-yl]propanoic acid] and `Cc1ccc(N2CCN(CC(=O)O)CC2)cc1C(=O)N[C@H](C)c1cccc2ccccc12` [Example 171, 2-[4-[4-Methyl-3-[[(1R)-1-(1-naphthyl)ethyl]carbamoyl]phenyl]piperazin-1-yl]acetic Acid] cannot be ordered by IC50: < 20 µM for the first, < 2 µM for the second.

`C[C@@H](NC(=O)c1cccc(C(=O)NCCN(C)C)c1)c1cccc2ccccc12` [Example 174, N1-[2-(Dimethylamino)ethyl]-N3-[(1R)-1-(1-naphthyl)ethyl]benzene-1,3-dicarboxamide] and `C[C@@H](NC(=O)c1cccc(C2CCN(CCS(C)(=O)=O)CC2)c1)c1cccc2ccccc12` [Example 176, 3-[1-(2-Methylsulfonylethyl)-4-piperidyl]-N-[(1R)-1-(1-naphthyl)ethyl]benzamide] cannot be ordered by IC50: < 100 µM for the first, < 100 µM for the second.

Compared with `C[C@@H](NC(=O)c1cccc(C2CCN(CCS(=O)(=O)c3ccccc3)CC2)c1)c1cccc2ccccc12` [Example 175, 3-[1-[2-(Benzenesulfonyl)ethyl]-4-piperidyl]-N-[(1R)-1-(1-naphthyl)ethyl]benzamide], `Cc1ccc(N2CCCN(CCS(C)(=O)=O)CC2)cc1C(=O)N[C@H](C)c1cccc2ccccc12` [Example 177, 2-Methyl-5-[4-(2-methylsulfonylethyl)-1,4-diazepan-1-yl]-N-[(1R)-1-(1-naphthyl)ethyl]benzamide] is lower in IC50: > 100 µM for the first, < 20 µM for the second. The second is the more potent here.

`Cc1ccc(N2CCN(C)CC2)cc1C(=O)N[C@H](C)c1cccc2c1OCCO2` [Example 183, N-[(1R)-1-(2,3-Dihydro-1,4-benzodioxin-5-yl)ethyl]-2-methyl-5-(4-methylpiperazin-1-yl)benzamide] and `COc1c(Br)cccc1[C@@H](C)NC(=O)c1cc(N2CCN(C)CC2)ccc1C` [Example 194, N-[(1R)-1-(3-Bromo-2-methoxy-phenyl)ethyl]-2-methyl-5-(4-methylpiperazin-1-yl)benzamide] cannot be ordered by IC50: < 20 µM for the first, < 100 µM for the second.

`Cc1ccc(N2CCN(C)CC2)cc1C(=O)N[C@H](C)c1cccs1` [Example 191, 2-Methyl-5-(4-methylpiperazin-1-yl)-N-[(1R)-1-(2-thienyl)ethyl]benzamide hydrochloride salt] and `Cc1ccc(N2CCN(C)CC2)cc1C(=O)N[C@H](C)c1cncc(Br)c1` [Example 193, N-[(1R)-1-(5-Bromo-3-pyridyl)ethyl]-2-methyl-5-(4-methylpiperazin-1-yl)benzamide] cannot be ordered by IC50: < 100 µM for the first, < 100 µM for the second.

`Cc1ccc(N2CCN(C)CC2)cc1C(=O)N[C@H](C)c1cc(Cl)cc(-c2cnn(C)c2)c1` [Example 257, N-[(1R)-1-[3-Chloro-5-(1-methylpyrazol-4-yl)phenyl]ethyl]-2-methyl-5-(4-methylpiperazin-1-yl)benzamide] and `Cc1ccc(N2CCN(C)CC2)cc1C(=O)N[C@H](C)c1cc(OC(F)F)cc(-c2cnn(C)c2)c1` [Example 283, N-[(1R)-1-[3-(Difluoromethoxy)-5-(1-methylpyrazol-4-yl)phenyl]ethyl]-2-methyl-5-(4-methylpiperazin-1-yl)benzamide] cannot be ordered by IC50: < 2 µM for the first, < 2 µM for the second.

`Cc1ccc(N2CCN(C)CC2)cc1C(=O)N[C@H](C)c1cc(OCC2CC2)cc(-c2cnn(C)c2)c1` [Example 277, N-[(1R)-1-[3-(Cyclopropylmethoxy)-5-(1-methylpyrazol-4-yl)phenyl]ethyl]-2-methyl-5-(4-methylpiperazin-1-yl)benzamide] and `CCOc1cc(-c2cnn(C)c2)cc([C@@H](C)NC(=O)c2cc(N3CCN(C)CC3)ccc2C)c1` [Example 278, N-[(1R)-1-[3-Ethoxy-5-(1-methylpyrazol-4-yl)phenyl]ethyl]-2-methyl-5-(4-methylpiperazin-1-yl)benzamide] cannot be ordered by IC50: < 2 µM for the first, < 2 µM for the second.

`Cc1ccc(N2CCN(C)CC2)cc1C(=O)N[C@H](C)c1cc(OC(C)C)cc(-c2cnn(C)c2)c1` [Example 279, N-[(1R)-1-[3-Isopropoxy-5-(1-methylpyrazol-4-yl)phenyl]ethyl]-2-methyl-5-(4-methylpiperazin-1-yl)benzamide] and `Cc1ccc(N2CCN(C)CC2)cc1C(=O)N[C@H](C)c1cc(OCCO)cc(-c2cnn(C)c2)c1` [Example 281, N-[(1R)-1-[3-(2-Hydroxyethoxy)-5-(1-methylpyrazol-4-yl)phenyl]ethyl]-2-methyl-5-(4-methylpiperazin-1-yl)benzamide] cannot be ordered by IC50: < 2 µM for the first, < 2 µM for the second.

`COc1cc(-c2cn(C)nc2C)cc([C@@H](C)NC(=O)c2cc(C3CCNCC3)ccc2C)c1` [Example 304, N-[(1R)-1-[3-(1,3-Dimethylpyrazol-4-yl)-5-methoxy-phenyl]ethyl]-2-methyl-5-(4-piperidyl)benzamide] and `Cc1ccc(N2CCN(C)CC2)cc1C(=O)N[C@H](C)c1cccc(C(=O)NCCO)c1` [Example 313, N-[(1R)-1-[3-(2-Hydroxyethylcarbamoyl)phenyl]ethyl]-2-methyl-5-(4-methylpiperazin-1-yl)benzamide] cannot be ordered by IC50: < 2 µM for the first, < 20 µM for the second.

`Cc1ccc(N2CCN(C)CC2)cc1C(=O)N[C@H](C)c1cccc(C(=O)N2CCN(C)CC2)c1` [Example 307, 2-Methyl-N-[(1R)-1-[3-(4-methylpiperazine-1-carbonyl)phenyl]ethyl]-5-(4-methylpiperazin-1-yl)benzamide] and `CNCCN(C)C(=O)c1cccc([C@@H](C)NC(=O)c2cc(N3CCN(C)CC3)ccc2C)c1` [Example 314, 2-Methyl-N-[(1R)-1-[3-[methyl-[2-(methylamino)ethyl]carbamoyl]phenyl]ethyl]-5-(4-methylpiperazin-1-yl)benzamide Dihydrochloride Salt] cannot be ordered by IC50: < 2 µM for the first, < 20 µM for the second.

Compared with `C[C@@H](NC(=O)c1ccnc(N2CCN(C)CC2)n1)c1cccc2ccccc12` [Example 316, 2-(4-Methylpiperazin-1-yl)-N-[(1R)-1-(1-naphthyl)ethyl]pyrimidine-4-carboxamide Hydrochloride Salt], `C[C@@H](NC(=O)c1ccnc(N2CCN(CCO)CC2)n1)c1cccc2ccccc12` [Example 317, 2-[4-(2-Hydroxyethyl)piperazin-1-yl]-N-[(1R)-1-(1-naphthyl)ethyl]pyrimidine-4-carboxamide hydrochloride salt] is higher in IC50: < 100 µM for the first, > 100 µM for the second. The first is the more potent here.

Compared with `C[C@@H](NC(=O)c1ccnc(N2CC[C@H](N)C2)n1)c1cccc2ccccc12` [Example 318, 2-[(3S)-3-Aminopyrrolidin-1-yl]-N-[(1R)-1-(1-naphthyl)ethyl]pyrimidine-4-carboxamide], `C[C@@H](NC(=O)c1ccnc(N2CC[C@@H](N)C2)n1)c1cccc2ccccc12` [Example 319, 2-[(3R)-3-Aminopyrrolidin-1-yl]-N-[(1R)-1-(1-naphthyl)ethyl]pyrimidine-4-carboxamide Hydrochloride Salt] is higher in IC50: < 100 µM for the first, > 100 µM for the second. The first is the more potent here.

With `C[C@@H](NC(=O)c1cncc(N2CCN(C)CC2)n1)c1cccc2ccccc12` [Example 320, 6-(4-Methylpiperazin-1-yl)-N-[(1R)-1-(1-naphthyl)ethyl]pyrazine-2-carboxamide Hydrochloride Salt] the IC50 was < 100 µM.

Tested on: human Hep G2 cells (ATCC HB-8065)
Experiment: Cytotoxicity in Hep G2 cells (CellTiter-Glo)
Type: cell-based
Conditions: Hep G2 cells, 100 μM test article, 24-hour exposure

In order of falling “% Cell Viability” value:
1. COc1ccc([C@@H](C)NC(=O)c2cc(N3C[C@@H]4C[C@H]3CN4C)ccc2C)cc1OC [Example 12, N-[(1R)-1-(3,4-Dimethoxyphenyl)ethyl]-2-methyl-5-[(1S,4S)-5-methyl-2,5-diazabicyclo[2.2.1]heptan-2-yl]benzamide]  91.1%
2. Cc1ccc(N2CCN(C)CC2)cc1C(=O)N[C@H](C)c1cccc(N2CCN(C)CC2)c1 [Example 104]  82.7%
3. Cc1ccc(C2CC2)cc1C(=O)N[C@H](C)c1cccc2ccccc12 [Example 4, 5-Cyclopropyl-2-methyl-N-[(1R)-1-(1-naphthyl)ethyl]benzamide]  56.8%
4. C[C@@H](NC(=O)c1cccc(N2CCN(C)CC2)c1)c1cccc2ccccc12 [Example 2, 3-(4-Methylpiperazin-1-yl)-N-[(1R)-1-(1-naphthyl)ethyl]benzamide]  20.3%
5. C[C@@H](NC(=O)c1cccc(C2CCNCC2)c1)c1cccc2ccccc12 [Example 6, N-[(1R)-1-(1-Naphthyl)ethyl]-3-(4-piperidyl)benzamide Hydrochloride Salt]  0.6%
